In patent publication US10017527B2, “KLK4 inhibitors” (Universiteit Antwerpen, priority 2014, dated 2018):

Experiments:
Format in all cases: biochemical
KLK2 (human) = biological target: T1, KLK2 (human) (Homo sapiens, UniProt P20151); test: KLK2 inhibition, fluorogenic substrate H-Pro-Phe-Arg-AMC; details: Tris buffer pH 8.3; read-out: IC50 KLK2
T1 construct: purchased Viktor Magdolen, TUMunich (TUM), supplied by an academic laboratory
Method in brief: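 IC50 values for KLK1 and KLK2 were determined by the same procedure. For tPA and neutrophil elastase, chromogenic substrate cleavage was followed by absorbance at 405 nm.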

KLK8 (human) = biological target: T2, KLK8 (human) (Homo sapiens, UniProt O60259); test: KLK8 inhibition, fluorogenic substrate Boc-Val-Pro-Arg-AMC; details: Tris buffer pH 8; read-out: IC50 KLK8
T2 construct: purchased Viktor Magdolen, TUMunich (TUM), supplied by an academic laboratory
T2 sequence (O60259 33-260): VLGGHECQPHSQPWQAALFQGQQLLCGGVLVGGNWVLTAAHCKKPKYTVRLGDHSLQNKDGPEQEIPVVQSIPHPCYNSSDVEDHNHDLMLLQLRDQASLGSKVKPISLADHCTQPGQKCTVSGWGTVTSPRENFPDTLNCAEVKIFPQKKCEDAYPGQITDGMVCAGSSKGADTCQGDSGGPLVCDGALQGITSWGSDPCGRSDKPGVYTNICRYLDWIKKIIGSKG
From the text: (§1) The IC50 values For KLK1, KLK2 and KLK8 were obtained in a similar way. For plasmin, tPA, thrombin, Fxa, HNE, Plasma kallikrein Chromogenic substrates were used (absorption: 405 nm). (KLK2, KLK4, KLK8 were supplied by Viktor Magdolen TUMunich (TUM)).

uPA (recombinant) = biological target: T3, uPA (recombinant) (Homo sapiens, UniProt P00749); test: uPA inhibition, chromogenic substrate Biophen CS-61(44); details: Tris buffer pH 8.8; read-out: IC50 uPA
T3 construct: purchased Nodia

Plasmine (human plasma) = biological target: T4, Plasmine (human plasma) (Homo sapiens, UniProt P00747); test: Plasmin inhibition, chromogenic substrate Biophen CS-21(66); details: Plasmin; Tris buffer pH 7.4; read-out: IC50 PLM
T4 construct: purchased Sigma-Aldrich; host or cells: human plasma
From the text: as §1

FXa = biological target: T5, FXa (Homo sapiens, UniProt P00742); test: FXa inhibition, chromogenic substrate Biophen CS-11(32); details: Tris buffer pH 8.3; read-out: IC50 FXa
T5 construct: purchased Nodia
From the text: as §1

PlasmaKLK (human plasma) = biological target: T6, PlasmaKLK (human plasma) (Homo sapiens, UniProt P03952); test: Plasma kallikrein inhibition, chromogenic substrate Biophen CS-31(02); details: Plasma KLK; Tris buffer pH 7.8; read-out: IC50 pKLK
T6 construct: purchased Sigma-Aldrich; host or cells: human plasma
From the text: as §1

T1 sequence (P20151 25-261): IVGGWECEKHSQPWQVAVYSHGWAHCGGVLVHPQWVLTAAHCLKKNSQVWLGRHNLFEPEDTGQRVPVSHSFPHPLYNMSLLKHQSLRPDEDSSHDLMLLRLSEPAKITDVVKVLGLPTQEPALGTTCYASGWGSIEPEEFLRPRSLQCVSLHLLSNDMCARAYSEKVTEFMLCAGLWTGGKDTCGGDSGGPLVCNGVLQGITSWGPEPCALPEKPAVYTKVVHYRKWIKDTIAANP
T6 sequence (P03952 391-638 limits assumed): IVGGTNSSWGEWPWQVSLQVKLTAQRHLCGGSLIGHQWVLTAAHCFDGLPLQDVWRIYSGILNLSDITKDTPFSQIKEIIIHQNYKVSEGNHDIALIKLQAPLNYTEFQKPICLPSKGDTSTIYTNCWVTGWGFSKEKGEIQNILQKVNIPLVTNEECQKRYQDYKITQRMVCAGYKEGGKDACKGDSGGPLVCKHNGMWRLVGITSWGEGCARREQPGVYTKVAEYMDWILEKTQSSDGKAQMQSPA
T6 sequence (P03952 20-390 partner limits assumed): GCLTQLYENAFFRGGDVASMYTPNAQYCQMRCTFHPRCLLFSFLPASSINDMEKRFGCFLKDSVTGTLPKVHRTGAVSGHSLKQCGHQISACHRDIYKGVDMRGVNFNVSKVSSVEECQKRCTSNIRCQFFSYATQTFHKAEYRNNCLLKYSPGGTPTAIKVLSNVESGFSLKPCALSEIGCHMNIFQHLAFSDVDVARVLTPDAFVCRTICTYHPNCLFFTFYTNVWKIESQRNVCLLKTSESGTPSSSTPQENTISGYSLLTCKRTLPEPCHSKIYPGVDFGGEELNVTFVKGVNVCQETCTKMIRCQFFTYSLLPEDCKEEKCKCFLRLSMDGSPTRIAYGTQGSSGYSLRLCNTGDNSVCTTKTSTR
T4 sequence (P00747 581-810 limits assumed): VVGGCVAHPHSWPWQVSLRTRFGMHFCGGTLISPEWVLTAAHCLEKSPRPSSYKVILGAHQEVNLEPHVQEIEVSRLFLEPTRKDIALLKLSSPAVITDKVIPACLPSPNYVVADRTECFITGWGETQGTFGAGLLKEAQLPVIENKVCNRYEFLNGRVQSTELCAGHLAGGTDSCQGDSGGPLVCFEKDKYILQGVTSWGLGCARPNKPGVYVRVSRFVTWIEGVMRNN
T4 sequence (P00747 98-580 partner limits assumed): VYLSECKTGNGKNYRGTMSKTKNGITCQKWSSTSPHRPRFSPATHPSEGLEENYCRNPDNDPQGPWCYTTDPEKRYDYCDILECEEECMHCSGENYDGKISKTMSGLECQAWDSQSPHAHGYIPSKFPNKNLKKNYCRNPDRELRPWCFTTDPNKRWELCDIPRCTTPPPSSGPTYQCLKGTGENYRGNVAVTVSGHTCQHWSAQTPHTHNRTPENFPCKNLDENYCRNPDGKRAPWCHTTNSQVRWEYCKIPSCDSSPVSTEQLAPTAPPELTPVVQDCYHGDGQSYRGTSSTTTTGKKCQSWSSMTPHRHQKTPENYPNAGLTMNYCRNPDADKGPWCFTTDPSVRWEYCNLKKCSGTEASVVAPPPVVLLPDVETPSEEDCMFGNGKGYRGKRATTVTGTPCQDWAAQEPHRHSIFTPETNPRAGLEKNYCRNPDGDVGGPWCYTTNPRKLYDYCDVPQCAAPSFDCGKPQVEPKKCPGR
T5 sequence (P00742 235-488 limits assumed): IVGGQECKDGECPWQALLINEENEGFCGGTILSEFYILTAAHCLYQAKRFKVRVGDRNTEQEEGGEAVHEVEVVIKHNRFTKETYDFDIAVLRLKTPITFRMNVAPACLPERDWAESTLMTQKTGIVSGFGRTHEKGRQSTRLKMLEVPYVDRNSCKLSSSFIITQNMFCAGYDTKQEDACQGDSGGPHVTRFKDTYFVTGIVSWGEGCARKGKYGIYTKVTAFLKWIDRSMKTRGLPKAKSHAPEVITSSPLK
T5 sequence (P00742 41-179 partner limits assumed): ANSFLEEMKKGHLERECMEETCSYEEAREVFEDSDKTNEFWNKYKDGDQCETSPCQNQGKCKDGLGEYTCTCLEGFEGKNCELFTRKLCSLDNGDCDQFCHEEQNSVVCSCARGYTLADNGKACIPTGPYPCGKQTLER

| Structure (SMILES) | IC50 (KLK2 (human)) [µM] | IC50 (KLK8 (human)) [µM] | IC50 (uPA (recombinant)) [µM] | IC50 (Plasmine (human plasma)) [µM] | IC50 (FXa) [µM] | IC50 (PlasmaKLK (human plasma)) [µM] |
| --- | --- | --- | --- | --- | --- | --- |
| COCCOCCOC(=O)NC(c1ccc(NC(=N)N)cc1)P(=O)(Oc1ccccc1)Oc1ccccc1.O=C(O)C(F)(F)F (stereo not drawn) [Compound 28, 2-(2-methoxyethoxy)ethyl((diphenoxyphosphoryl)(4-guanidinophenyl)methyl) carbamate 2,2,2-trifluoroacetate] | 0.1 to 1 | 10 to 250 | 10 to 250 | 10 to 250 | > 250 | 10 to 250 |
| N=C(N)Nc1ccc(C(NC(=O)OCCOc2ccccc2)P(=O)(Oc2ccccc2)Oc2ccccc2)cc1.O=C(O)C(F)(F)F (stereo not drawn) [Compound 30, 2-phenoxyethyl((diphenoxyphosphoryl)(4-guanidinophenyl)methyl)carbamate 2,2,2-trifluoroacetate] | 0.1 to 1 | 10 to 250 | 2.5 to 10 | 10 to 250 | 10 to 250 | > 250 |
